Measurements taken from PMC9571711, “New Biologically Hybrid Pharmacophore Thiazolidinone-Based Indole Derivatives: Synthesis, In Vitro Alpha-Amylase and Alpha-Glucosidase along with Molecular Docking Investigations” (Molecules, 2022).

Columns and labels:
[1] = biological target: crude intestinal α-glucosidase; experiment: In vitro alpha-glucosidase inhibition (p-nitrophenyl-α-D-glucopyranoside); type: biochemical; conditions: ± SEM
Procedure: 3.6. Alpha-glucosidase inhibition protocol
α-Glucosidase inhibitory activities was determined as per reported methods. 10 μL of test samples (5 mg/mL DMSO solution) were altered in 100 μL of 100 mM-phosphate buffer (pH 6.8) in 96-well microplate and incubated with 50 μL of crude intestinal α-glucosidase for 5 min before 50μL substrate (5 mM, p-nitrophenyl-α-D-glucopyranoside prepared in same buffer) was […]
plus384) for 5 min after incubation with substrate. Individual blanks for test samples were prepared to correct background absorban ce where substrate was replaced with 50μL of buffer.
Control sample contained 10 μL DMSO in place of test samples. Percentage of enzyme inhibition was calculated as (1-B/A) x 100 where A represents absorbance of control without test samples, and B represents absorbance in presence of test samples. […]

| SMILES | IC50 [1] [µM] | melting point [°C] |
| --- | --- | --- |
| O=C1N/C(=N/c2nccs2)S/C1=C\c1cc2[nH]ccc2c(Cl)c1[N+](=O)[O-] [Compound 3] | 8.7 ± 0.2 | 235 to 237 |
| O=C1N/C(=N/c2nccs2)S/C1=C/c1cc(F)c2cc[nH]c2c1 [Compound 4, (2Z,5E)-5-((4-fluoro-1H-indol-6-yl)methylene)-2-(thiazol-2-ylimino)thiazolidin-4-one] | 2.7 ± 0.7 | 237 to 239 |
| O=C1NC(=Nc2nccs2)SC1=Cc1cc2[nH]ccc2cc1F [Compound 5, (2Z,5E)-5-((5-fluoro-1H-indol-6-yl)methylene)-2-(thiazol-2-ylimino)hiazolidine-4-one] | – | 234 to 236 |
| O=C1N/C(=N/c2nccs2)S/C1=C\c1cc(C(F)(F)F)c2cc[nH]c2c1O [Compound 6] | 4.5 ± 0.7 | 238 to 240 |
| O=C1N/C(=N/c2nccs2)S/C1=C\c1cc(O)c2cc[nH]c2c1O [Compound 7] | 3.5 ± 0.8 | 238 to 241 |
| COc1cc2cc[nH]c2c(O)c1/C=C1\S/C(=N\c2nccs2)NC1=O [Compound 8] | 8.7 ± 0.8 | 238 to 241 |
| CN(C)c1cc(/C=C2\S/C(=N\c3nccs3)NC2=O)cc2[nH]ccc12 [Compound 9] | 23.2 ± 0.4 | 234 to 237 |
| N#Cc1cc(/C=C2\S/C(=N\c3nccs3)NC2=O)cc2[nH]ccc12 [Compound 10] | 24.6 ± 0.2 | 239 to 242 |
| O=C1N/C(=N/c2nccs2)S/C1=C\c1c(O)cc2cc[nH]c2c1Cl [Compound 11] | 7.85 ± 0.2 | 236 to 239 |
| O=C1N/C(=N/c2nccs2)S/C1=C\c1cc(O)c2cc[nH]c2c1Cl [Compound 12] | 9.1 ± 0.3 | 236 to 239 |
| O=C1N/C(=N/c2nccs2)S/C1=C\c1cc2[nH]ccc2c(Cl)c1Cl [Compound 14] | 13.5 ± 0.4 | 231 to 233 |
| O=C1N/C(=N/c2nccs2)S/C1=C\c1cc2[nH]ccc2c(Cl)c1Br [Compound 15] | 28.4 ± 0.8 | 241 to 243 |
| O=C1N/C(=N/c2nccs2)S/C1=C\c1cc(Br)c2cc[nH]c2c1Cl [Compound 16] | 26.7 ± 0.3 | 240 to 242 |
| Cc1c(Br)c(/C=C2\S/C(=N\c3nccs3)NC2=O)cc2[nH]ccc12 [Compound 17] | 31.5 ± 0.5 | 242 to 245 |
| Cc1c(/C=C2\S/C(=N\c3nccs3)NC2=O)cc2[nH]ccc2c1Br [Compound 18] | 23.3 ± 0.4 | 239 to 242 |
| O=C1N/C(=N/c2nccs2)S/C1=C\c1cccc(O)c1 [Compound 19] | 19.8 ± 0.6 | – |
| O=C1N/C(=N/c2nccs2)S/C1=C\c1c(O)cc2cc[nH]c2c1Br [Compound 20, (2Z,5Z)-5-((7-bromo-5-hydroxy-1H-indol-6-yl)methylene)-2-(thiazol-2-ylimino)thiazolidin-4-one] | 29.4 ± 0.9 | 234 to 237 |
